From PubChem BioAssay (NCI) come the findings set out here.

Assay in all cases: NCI tumour cell line growth inhibition, 48 h
The subject of test [1] is DMS 114 small cell lung.
Test [2] relates to DMS 273 small cell lung.
Test [3] deals with HOP-18 NSCLC.
Test [4] relates to M19-MEL melanoma.
The subject of test [5] is RXF-631 renal.
Test [6] has as its system XF 498 CNS.
The subject of test [7] is P388 leukemia.
In test [8] the test system is P388/ADR leukemia.
In test [9] the test system is SN12K1 renal.

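Compound exposure: 48 hours, 5 concentrations, 96-well plates. TGI: concentration producing complete growth inhibition.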

As for `CC(C)(C)C1(c2ccc(C3(c4ccccc4)Oc4ccccc4S3)[nH]2)Oc2ccccc2S1` (stereo not drawn), the TGI in test [1], in test [2], in test [3], in [4], in test [5] and in [6] was > 100 µM each time.

Regarding `O=Nc1ccc(O)c2ncccc12`, the TGI was determined as 12.4 µM in test [1], 10.3 µM in [2], 51.8 µM in test [3] and 16.4 µM in [4].

Take `C=C(C)C1CC2=C(O1)C(=O)c1ccccc1C2=O` (stereo not drawn): the TGI in test [1] was 32.9 µM; in [2], 33.5 µM; in [5], 40.3 µM; in test [6] it was 32.2 µM.

With `CC(C)=CCc1c(O)ccc2c1OC1c3ccc(O)c(CC=C(C)C)c3OCC21` (stereo not drawn), the TGI stood at 26.3 µM in test [1]; 28.2 µM in [2]; 33.3 µM in test [3]; 24.2 µM in test [4]; 37.4 µM in test [7]; 32.2 µM in [8]. Further, the values for the TGI in [9] and in [6] were 20.2 µM and 32.6 µM, respectively.

In the case of `CN1CCC(C(=O)NNc2ccccc2)CC1`, the TGI in test [1] is > 87.2 µM; in test [2], > 31.3 µM; in [3], > 100 µM; in test [4], > 79.7 µM; in test [6], > 100 µM.

On to `C=C(CN(C)C)C(=O)c1ccc(C)cc1C`, for which the TGI in test [1] is 46.6 µM; in test [2] it was 44.2 µM; in test [3], 30.3 µM; in test [4] it was 43.1 µM; in test [5], 36.9 µM; in test [6] it was 27.6 µM.

Regarding `C/C1=N\NC(=O)c2ccccc2C(=O)N/N=C(\C)c2cccc1n2.O=[N+]([O-])[O-].[Zn+2]`, the TGI in test [1] and in [3] was > 100 µM in each case.

As for `c1ccc(-n2cnnc2-c2nsc3ccccc23)cc1`, the TGI in [2], in test [3] and in test [4] was > 100 µM each time.
